These are literature values, as cited in patent publication US7737177B2, “Processes for preparing crystalline and amorphous mupirocin calcium” (priority 2001, dated 2010).

Molecules are shown by their SMILES. Like-named read-outs stand apart in the source and are kept apart here.

The test system of data set [1] is Gram positive bacteria (e.g. Staphylococcus aureus, Streptococcus pyogenes, Streptococcus pneumoniae, Klebsiella pneumoniae) and some Gram negative bacteria (e.). As to conditions: mainly Gram positive and some Gram negative bacteria; cited from earlier work.
For data set [2] the following is noted: both for humans and animals; cited from earlier work.
For data set [3] the following is noted: expressed as a percentage of pure free pseudomonic acid, cited from earlier work.

Regarding `C/C(=C\C(=O)OCCCCCCCCC(=O)O)C[C@@H]1OC[C@H](C[C@@H]2O[C@H]2[C@@H](C)[C@H](C)O)[C@@H](O)[C@H]1O` [Pseudomonic acid A, 9-{4[5S(2S,3S-epoxy-5S-hydroxy-4S-methylhexyl)-3R,4R-dihydroxy-tetrahydropyran-2S-yl]-3-methylbut-2(E)-enoyloxy}nonanoic acid], the minimal inhibiting concentration in data set [1] is 0.02 to 0.5 µg/mL. Further, the toxicity result in data set [2] is “very low toxicity”. Also, the Purity after storage in data set [3] (2 weeks, 37° C.) is listed as 90.61%; in data set [3] (2 weeks, 50° C.), 51.18%; in data set [3] (2 weeks, 80° C.) it was 0%; in data set [3] (8 days, 80° C.), 0%; in data set [3] (10 days, 50° C.), 71.59%.
